Results published in a melting point compilation (Tetko et al.; mined from patent text by program, amines drawn as free bases though some values may be those of a salt).

Row | Structure (SMILES) | melting point
1 | CCOc1nc(=O)n(-c2cc(C(=O)OC)c(Cl)cc2F)c(=O)n1C | 45 to 47 °C
2 | COC(=O)c1cnn(C)c1Cl | 69 to 70 °C
3 | CC(C)c1cccc(-c2ccc(F)cc2)c1/C=C/CO | 71 to 72 °C
4 | Nc1ccc(C23CC2C(=O)N(CC2CCCCC2)C3=O)cc1 (stereo not given) | 125 to 126 °C
5 | CC(C)(C#N)c1cc(Cn2cncn2)cc(C(N)=O)c1 | 144 to 145 °C
6 | CCc1c(-c2ccc(OCc3ccccc3)cc2)c2ccc3c(OC)ccc1n32 | 78 to 81 °C
7 | Cc1cccc(C(=O)C(=C2SCS2)c2ccncc2)c1 | 179 °C
8 | O=C(N[C@H]1CC[C@H](CCN2CCN(c3nccc4c3CCO4)CC2)CC1)c1ccc(N2CCOCC2)nc1 | 222 °C
9 | CN(C)c1ccc(-c2nc(S)nnc2-c2ccc(F)cc2)cc1 | 262 to 264 °C
10 | COc1ccc(Oc2ccccc2-c2cn(C(C)(C)C)c(N)c2C#N)cc1 | 171 to 172 °C
11 | CC(C)(C)c1ccc2c(c1)C(=O)CCC2 | 101 to 102 °C
12 | CC(C)c1nc(-c2ccc(F)cc2)c(-c2ccc(F)cc2)n1/C=C/[C@@H](O)C[C@@H](O)CC(=O)O | 172 to 173 °C
13 | COc1ccc2c(=O)c(S(C)(=O)=O)cn(C)c2c1 | 212 to 214 °C
14 | Cn1nnc(-c2ccc(CNc3n[nH]c4ncnc(Nc5cccc(Cl)c5)c34)cc2)n1 | 232 to 235 °C
15 | CC(C)(C)c1ccc(CSc2ccc3c(c2)OCC(=O)N3)cc1 | 134 to 136 °C
16 | COC(=O)CC=Cc1c(C(C)C)cc(C(C)C)cc1C(C)C | 61 to 63 °C
17 | c1ccc2cc(N3CCN(Cc4n[nH]c5ccccc45)CC3)ncc2c1 | 214 to 215 °C
18 | CCOc1ncccc1OCC1(c2onc(-c3ccc(O)cc3)c2-c2ccccc2)CC1 | 190 to 192 °C
19 | CCCCOc1cc2c3c(ccc4c5ccc6c7c(cc(OCCCC)c(c1c34)c75)-c1ccccc1C6=O)C(=O)c1ccccc1-2 | 275 to 280 °C
20 | CCC(C)Sc1cc(C(=O)O)cc(N)c1Oc1ccccc1 (stereo not given) | 157 to 159 °C
21 | COc1cnn(-c2cccc(CBr)c2)c(=O)c1OC | 67 to 69 °C
22 | COCCc1nc2c(N)nc3cc(-c4ccccc4)ccc3c2n1CC(C)(C)O | 226 to 227 °C
23 | CCOC(=O)N1CCN(c2nc3cccccc-3n2)CC1 | 136 to 138 °C
24 | Clc1ccc2c3c(cccc13)C(NCCCn1ccnc1)=N2 | 177 to 178 °C

Row | Structure (SMILES) | melting point
25 | O=C1CCCN1Cc1ccc(CCn2cnc3cc(-c4ccc(Cl)cc4)sc3c2=O)cc1 | 218 to 221 °C
26 | COCCOc1ccc2c(C3C(=O)Nc4ccccc43)ncnc2c1 (stereo not given) | 245 to 248 °C
27 | COc1cc2c(cc1C(F)(F)F)N(C(=O)Nc1csc(-c3cnccn3)n1)CC2 | > 240 °C
28 | COc1cc(COc2nn(C)cc2C(C)=O)ccc1OCc1nc(-c2ccccc2)oc1C | 170 to 171 °C
29 | CSC(=CC(=O)c1cnccn1)SC | 155 °C
30 | C=CCC1(C(=O)OC)C(=O)Nc2ccccc2CC1c1ccc(OC)cc1 (stereo not given) | 175 to 176 °C
31 | COc1ccc(COC(=O)NC(C(=O)O)c2cccs2)cc1 (stereo not given) | 153 to 156 °C
32 | CC(C)(C)c1cc(SCN2C(=O)c3ccccc3C2=O)cc(C(C)(C)C)c1O | 151 to 153 °C
33 | CN1CCCC1=C(C#N)C(=O)c1ccc(Cl)cc1 | 115 °C
34 | CCCCCc1cnc(-c2ccc(F)cc2)nc1 | 28.6 °C
35 | N#Cc1cccc(C=C2c3ccccc3CCc3ccccc32)c1 | 116 °C
36 | O=c1c2cccc3c2n(c(=O)n1CCO)-c1cc(C(F)(F)F)ccc1S3 | 90 to 93 °C
37 | COc1ccccc1CNc1ccc2cc(Nc3ncccc3C)ccc2n1 | 163 °C
38 | COc1cc2cc(CO)nc(-c3ccc([N+](=O)[O-])cc3)c2cc1OC | 260 to 263 °C
39 | Fc1ccccc1COc1nn(Cc2ccccc2F)c2ncccc12 | 57 to 58 °C
40 | Cc1cc(Cl)cc(C(=O)Nc2ccn(C)n2)n1 | 204 °C
41 | COC(=O)c1ccc(CC(C)NCC(O)c2ccc(O)c(CO)c2)c(OC)c1 (stereo not given) | 96 to 105 °C
42 | COC(=O)CC[C@H](NC(=O)c1cn(C(c2ccccc2)(c2ccccc2)c2ccccc2)c(C#Cc2cnc3nc(NC(=O)C(C)(C)C)nc(O)c3c2)n1)C(=O)OC | 93 to 95 °C
43 | O=c1ccc2c(-n3cnc([N+](=O)[O-])c3)nccc2[nH]1 | 298 to 300 °C
44 | COC(=O)c1ccc(C#Cc2cncc(C3CCCN3C)c2)cc1 (stereo not given) | 97 to 98 °C
45 | CC(C)(C)OC(=O)N1CCn2c(Cl)c(-c3ccccc3)c(C(N)=O)c2C1 | 178 to 180 °C
46 | CC(=O)c1cccc(N2CCN(CCC3CCC(NC(=O)CC#N)CC3)CC2)c1 (stereo not given) | 160 °C
47 | CCCCCc1ccc(OC(=O)c2ccc(OCC)c(F)c2F)cc1 | 61 °C
48 | CCc1cc(CC)c2ccc(N)nc2n1 | 187 to 189 °C

Row | Structure (SMILES) | melting point
49 | O=c1c2cccnc2c(-c2cccc(Cl)c2)cn1Cc1ccncc1 | 170 to 172 °C
50 | O=C(c1cc(C(F)(F)F)cc(C(F)(F)F)c1)N1CCC2(CC1)C(=O)N(c1cc(Cl)ncn1)CN2c1ccccc1 | 212 to 214 °C
51 | Fc1cncc(-n2ccc(Cl)n2)c1 | 77 to 82 °C
52 | Cc1oc(-c2ccccc2)nc1CCOc1ccc(CNO)cc1 | 99 to 102 °C
53 | CCCCCCCCCCCN(O)C(=O)N(C)C | 54 to 55 °C
54 | Cc1oc(-c2ccccc2)nc1CCC(=O)c1ccc(C=CC=O)cc1 | 119 to 120 °C
55 | O=C1N=C(N2CCOCC2)SC1=Cc1cc(-c2ccc(O)c(C34CC5CC(CC(C5)C3)C4)c2)ccc1O | 325 to 330 °C
56 | COc1cc2c(cc1Nc1ncc3ccc(-c4ccccc4OC)n3n1)CN(C)C2 | 136 to 141 °C
57 | CCOC(=O)C(=CNC1CC1)C(=O)c1c(F)cc(F)c(F)c1N(Cc1ccccc1)C(C)=O | 119 to 121 °C
58 | C=C(CS(=O)(=O)c1ccc(C)cc1)c1ccccc1 | 103 °C
59 | O=C(c1cccs1)c1cccc2nc(N[C@@H]3CCc4ccccc43)ccc12 | 176 °C
60 | CC(=O)OC1CC2CCC3C4CCC(C(C)=O)C4(C)CC(=O)C3C2(C)CC1Br (stereo not given) | 154 to 156 °C
61 | C=CCOc1nc2ccccc2c2ncc(C(=O)OCC)c(=O)n12 | 191 to 195 °C
62 | CN(C(=O)COc1cc(-c2ccccc2)nc2ccccc12)c1ccccc1 | 150 °C
63 | N#Cc1ccc(OCc2ccsc2)cc1OC(C(=O)O)c1cccc(Cl)c1 (racemic) | 134 to 136 °C
64 | CCn1cc(C(=O)O)c(=O)c2cc(F)c(N3CCN(S(=O)(=O)c4ccc(NC(C)=O)cc4)CC3)c(F)c21 | 276 to 277 °C
65 | O=S(=O)(NCC(O)CN1c2ccccc2CCc2ccccc21)c1ccc(OC(F)(F)F)cc1 (stereo not given) | 102 to 103 °C
66 | CCc1c(O)cc(O)c(C(=O)c2ccccc2)c1CC(=O)N1CCN(c2ccccc2C#N)C(=O)C1 | 259 to 261 °C
67 | COc1cc(NS(=O)(=O)CC(=O)c2ccccc2)c2c(c1)OC(C)C2 (stereo not given) | 143 to 145 °C
68 | CCOC(=O)C(C(=O)OCC)c1ccc(Br)cc1[N+](=O)[O-] | 54 to 55 °C
69 | O=C(c1ccc(Br)cc1F)N1CCN(c2ccncc2)CC1 | 125 to 126 °C
70 | COc1cc(F)cc2c1-c1c(F)cc(F)cc1C2=O | 164 to 166 °C
